{"source": "paper PMC9964746", "about": "“Mechanism of Action and Structure–Activity Relationships of Tetracyclic Small Molecules Acting as Universal Positive Allosteric Modulators of the Cholecystokinin Receptor” (Membranes, 2023)", "target": "T1, CCK1R (Homo sapiens, UniProt P32238)", "T1 sequence (P32238 1-428)": "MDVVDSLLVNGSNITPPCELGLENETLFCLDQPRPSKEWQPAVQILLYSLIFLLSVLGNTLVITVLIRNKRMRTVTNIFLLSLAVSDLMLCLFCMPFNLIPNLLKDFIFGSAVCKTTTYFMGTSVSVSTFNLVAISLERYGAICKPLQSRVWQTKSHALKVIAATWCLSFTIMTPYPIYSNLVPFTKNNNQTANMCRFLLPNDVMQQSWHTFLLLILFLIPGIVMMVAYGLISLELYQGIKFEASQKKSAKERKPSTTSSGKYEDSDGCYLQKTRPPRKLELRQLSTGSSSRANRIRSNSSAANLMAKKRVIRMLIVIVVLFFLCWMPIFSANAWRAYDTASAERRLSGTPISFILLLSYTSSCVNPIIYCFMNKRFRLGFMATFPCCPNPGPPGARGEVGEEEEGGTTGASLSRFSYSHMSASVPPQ", "assay": "IP-One accumulation TR-FRET assay, PAM format, HEK-293 CCK1R cells", "assay_type": "cell-based", "set-up": "expressed in transfected cells; host or cells: HEK-293", "details": "for Emax: HEK293; for EC50: PAM format with EC20 CCK", "in_short": "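HEK-293 cells overexpressing CCK1R were plated overnight, then given compounds (top 50 µM, 16-point 2-fold) for 30 min at 37 °C. CCK stimulator with 50 mM LiCl (PAM format) or DMSO (agonist format) followed for 1 h. IP-One was read by TR-FRET; activity score = CCK-normalized Emax × pEC50.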", "key": {"[1]": {"details": "HEK-293 CCK1R cells, PAM format, relative to CCK control, average ± SD"}, "[2]": {"details": "HEK-293 CCK1R cells, PAM format"}, "[3]": {"details": "HEK-293 CCK1R cells, average ± SD"}}, "data": [{"smiles": "CCN(CC)CCNc1ncnc2c1sc1nc(N3CCOCC3)c3c(c12)CCCC3", "note": "[CMP-1]", "values": [{"measurement": "Log(Rmax/R50)", "setting": "CCK1R IP-One PAM assay", "value": 4.7}, {"measurement": "Emax", "setting": "[1]", "value": 60, "unit": "%"}, {"measurement": "CCK1R PAM (IP-One) Score (activity score = normalized Emax × pEC50)", "setting": "[2]", "value": 2.94}, {"measurement": "EC50", "setting": "[3]", "value": "12.8 ± 4.6", "unit": "µM"}, {"measurement": "CCK1R PAM (IP-One) Emax", "setting": "[1]", "value": "63 ± 18", "unit": "%"}, {"measurement": "CCK1R PAM (IP-One) Score (activity score = normalized Emax × pEC50)", "setting": "HEK-293 CCK1R cells, PAM format, listed as hit 1", "value": 2.9}, {"measurement": "AUC relative to AUC of endogenous agonist CCK", "setting": "from activity scores, CCK1R IP-One", "value": "approximately 29%"}]}, {"smiles": "CCCc1nc2oc3c(NCCCN(C)C)ncnc3c2c2c1CCCC2", "note": "[CMP-28]", "values": [{"measurement": "Emax", "setting": "[1]", "value": "35 ± 13", "unit": "%"}, {"measurement": "CCK1R PAM (IP-One) Score (activity score = normalized Emax × pEC50)", "setting": "[2]", "value": 1.66}, {"measurement": "EC50", "setting": "[3]", "value": "9.5 ± 3.5", "unit": "µM"}, {"measurement": "CCK1R PAM (IP-One) Score (activity score = normalized Emax × pEC50)", "setting": "HEK-293 CCK1R cells, PAM format, listed as hit 6", "value": 1.7}]}]}
